Laboratory results: ChEMBL document CHEMBL4261615, “Design, synthesis, biological evaluation and cellular imaging of imidazo[4,5-b]pyridine derivatives as potent and selective TAM inhibitors” (Bioorg Med Chem, 2018)
pIC50: −log10 of the molar value. Active and inactive are the calls of the source. No cut-off for these calls is given here.

Columns and labels:
[1] = target: T1, Tyrosine-protein kinase Mer (Homo sapiens) (UniProt Q12866); test: Inhibition of recombinant GST-tagged human Mer (578 to 872 residues) cytoplasmic domain expressed in Baculovirus system using poly (Glu-Ala-Tyr) peptide as substrate after 1.5 hrs by ELISA
T1 sequence (whole entry): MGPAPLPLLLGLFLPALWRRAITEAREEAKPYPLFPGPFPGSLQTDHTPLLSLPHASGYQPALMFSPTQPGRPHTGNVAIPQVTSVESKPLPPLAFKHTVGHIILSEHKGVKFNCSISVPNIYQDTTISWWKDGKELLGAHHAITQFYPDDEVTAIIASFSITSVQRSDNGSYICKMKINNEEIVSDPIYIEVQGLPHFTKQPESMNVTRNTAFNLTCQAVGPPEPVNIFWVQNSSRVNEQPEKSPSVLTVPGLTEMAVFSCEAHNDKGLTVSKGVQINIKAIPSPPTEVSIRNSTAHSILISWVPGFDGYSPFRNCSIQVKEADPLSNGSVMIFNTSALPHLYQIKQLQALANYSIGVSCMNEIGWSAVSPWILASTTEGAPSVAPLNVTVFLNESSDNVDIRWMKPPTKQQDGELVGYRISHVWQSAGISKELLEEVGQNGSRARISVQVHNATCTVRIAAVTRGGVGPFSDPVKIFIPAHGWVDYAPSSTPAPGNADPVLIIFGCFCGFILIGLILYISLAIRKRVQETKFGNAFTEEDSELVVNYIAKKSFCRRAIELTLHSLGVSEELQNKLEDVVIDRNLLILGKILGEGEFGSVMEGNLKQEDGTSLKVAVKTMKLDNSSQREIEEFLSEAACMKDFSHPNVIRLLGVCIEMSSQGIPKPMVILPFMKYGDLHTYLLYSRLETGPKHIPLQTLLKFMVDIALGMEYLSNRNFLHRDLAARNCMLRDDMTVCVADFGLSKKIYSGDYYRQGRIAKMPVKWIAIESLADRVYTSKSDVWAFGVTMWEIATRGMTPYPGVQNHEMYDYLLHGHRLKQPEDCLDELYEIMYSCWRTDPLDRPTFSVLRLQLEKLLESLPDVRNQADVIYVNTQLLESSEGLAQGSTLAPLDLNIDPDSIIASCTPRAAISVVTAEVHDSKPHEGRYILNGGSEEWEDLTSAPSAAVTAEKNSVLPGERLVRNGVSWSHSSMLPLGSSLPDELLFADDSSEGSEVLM

[2] = target: T2, Tyrosine-protein kinase receptor TYRO3 (Homo sapiens) (UniProt Q06418); test: Inhibition of recombinant GST-tagged human Tyro3 (451 to 890 residues) cytoplasmic domain expressed in Baculovirus expression system using poly (Glu-Ala-Tyr) peptide as substrate after 1.5 hrs by ELISA
T2 sequence (whole entry): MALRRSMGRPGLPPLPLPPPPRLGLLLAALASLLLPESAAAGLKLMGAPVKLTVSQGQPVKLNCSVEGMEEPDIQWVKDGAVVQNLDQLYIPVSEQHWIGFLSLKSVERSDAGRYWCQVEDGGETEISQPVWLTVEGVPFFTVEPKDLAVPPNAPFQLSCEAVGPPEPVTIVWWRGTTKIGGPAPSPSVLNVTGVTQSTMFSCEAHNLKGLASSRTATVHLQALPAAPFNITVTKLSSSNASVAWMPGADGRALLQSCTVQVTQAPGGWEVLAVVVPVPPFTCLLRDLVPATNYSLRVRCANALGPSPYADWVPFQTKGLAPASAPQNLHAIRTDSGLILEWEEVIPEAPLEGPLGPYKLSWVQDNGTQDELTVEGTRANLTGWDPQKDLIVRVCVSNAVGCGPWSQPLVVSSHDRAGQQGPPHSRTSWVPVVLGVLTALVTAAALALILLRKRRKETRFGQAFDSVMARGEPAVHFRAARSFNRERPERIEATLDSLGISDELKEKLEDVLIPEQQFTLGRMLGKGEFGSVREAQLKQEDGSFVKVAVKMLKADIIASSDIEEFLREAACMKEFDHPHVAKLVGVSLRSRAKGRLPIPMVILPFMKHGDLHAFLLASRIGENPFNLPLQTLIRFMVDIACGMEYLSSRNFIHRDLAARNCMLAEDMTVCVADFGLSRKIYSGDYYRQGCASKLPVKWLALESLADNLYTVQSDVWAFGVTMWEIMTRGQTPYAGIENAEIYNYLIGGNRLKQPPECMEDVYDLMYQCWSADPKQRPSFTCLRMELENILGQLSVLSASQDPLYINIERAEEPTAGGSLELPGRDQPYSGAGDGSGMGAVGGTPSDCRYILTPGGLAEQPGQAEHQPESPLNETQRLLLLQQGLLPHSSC

[3] = target: Tyrosine-protein kinase receptor UFO (Homo sapiens) (UniProt P30530); test: Inhibition of recombinant His-tagged human Axl (473 to end residues) cytoplasmic domain expressed in insect system using poly (Glu-Ala-Tyr) peptide as substrate after 1.5 hrs by ELISA
Chain of Tyrosine-protein kinase receptor UFO (Homo sapiens) (P30530 whole entry, the tested form may be a part): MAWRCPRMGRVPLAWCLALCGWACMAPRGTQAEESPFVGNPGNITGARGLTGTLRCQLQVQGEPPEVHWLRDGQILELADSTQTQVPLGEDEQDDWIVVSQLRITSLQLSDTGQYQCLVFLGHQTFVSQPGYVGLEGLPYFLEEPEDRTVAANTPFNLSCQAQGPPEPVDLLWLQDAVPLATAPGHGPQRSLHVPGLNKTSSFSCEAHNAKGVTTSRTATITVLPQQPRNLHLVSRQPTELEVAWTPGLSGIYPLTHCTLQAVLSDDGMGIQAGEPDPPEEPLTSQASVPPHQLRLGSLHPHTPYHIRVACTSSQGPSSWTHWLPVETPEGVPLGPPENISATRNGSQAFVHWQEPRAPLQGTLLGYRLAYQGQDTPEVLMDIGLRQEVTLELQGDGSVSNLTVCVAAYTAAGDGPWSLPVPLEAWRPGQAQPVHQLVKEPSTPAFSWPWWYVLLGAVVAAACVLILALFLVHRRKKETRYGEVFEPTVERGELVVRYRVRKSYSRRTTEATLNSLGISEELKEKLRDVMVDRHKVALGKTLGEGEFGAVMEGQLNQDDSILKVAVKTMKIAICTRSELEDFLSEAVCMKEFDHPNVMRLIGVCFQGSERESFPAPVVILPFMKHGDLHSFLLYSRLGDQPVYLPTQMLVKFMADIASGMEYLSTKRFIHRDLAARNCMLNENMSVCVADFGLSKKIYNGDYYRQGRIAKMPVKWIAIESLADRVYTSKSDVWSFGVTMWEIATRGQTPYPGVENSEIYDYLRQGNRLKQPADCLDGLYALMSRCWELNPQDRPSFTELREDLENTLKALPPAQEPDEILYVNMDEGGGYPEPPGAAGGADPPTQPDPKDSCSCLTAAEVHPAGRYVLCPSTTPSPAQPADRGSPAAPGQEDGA

RT-112 = test: Antiproliferative activity against human RT112 cells after 72 hrs by CellTiter-Glo assay; format: functional, cell-based
Homo sapiens = species: Homo sapiens; test: (§1) Antiproliferative activity against human MGHU3 cells after 72 hrs by CellTiter-Glo assay; format: functional, cell-based
A549 = test: Antiproliferative activity against human A549 cells after 72 hrs by CellTiter-Glo assay; format: functional, cell-based; details: A549, 72 h
[4] = as §1; format: functional, cell-based

CC(C)c1nc2c(Oc3ccc(NC(=O)c4cccn(-c5ccc(F)cc5)c4=O)cc3F)c(-c3cccnc3)cnc2[nH]1
inhibition [1]: inactive | inhibition [2]: inactive | inhibition [3]: inactive

COc1cc2nccc(Oc3ccc(NC(=O)C4(C(=O)Nc5ccc(F)cc5)CC4)cc3)c2cc1OC
Activity (RT-112): Active | Activity (Homo sapiens): Active

CC(C)c1nc2c(Oc3ccc(NC(=O)c4cccn(-c5ccc(F)cc5)c4=O)cc3F)c(-c3ccc(N(C)C)cc3)cnc2[nH]1
inhibition [1]: inactive | inhibition [2]: inactive | inhibition [3]: inactive

CCc1nc2c(Oc3ccc(NC(=O)c4cccn(-c5ccc(F)cc5)c4=O)cc3F)c(-c3cccnc3)cnc2[nH]1
inhibition [1]: inactive | inhibition [2]: inactive | inhibition [3]: inactive

CC(C)c1nc2c(Oc3ccc(NC(=O)c4cccn(-c5ccc(F)cc5)c4=O)cc3F)c(-c3ccc(O)cc3)cnc2[nH]1
inhibition [1]: inactive | inhibition [2]: inactive | inhibition [3]: inactive

CC(C)c1nc2c(Oc3ccc(NC(=O)c4cccn(-c5ccc(F)cc5)c4=O)cc3F)c(-c3ccncc3)cnc2[nH]1
inhibition [1]: inactive | inhibition [2]: inactive | inhibition [3]: inactive

O=C(Nc1ccc(Oc2c(-c3ccccc3)cnc3[nH]cnc23)c(F)c1)c1cccn(-c2ccc(F)cc2)c1=O
inhibition [1]: inactive | inhibition [2]: inactive | inhibition [3]: inactive

CCc1nc2c(Oc3ccc(NC(=O)c4cccn(-c5ccc(F)cc5)c4=O)cc3F)c(-c3ccc(O)cc3)cnc2[nH]1
inhibition [1]: inactive | inhibition [2]: inactive | inhibition [3]: inactive

CCc1nc2c(Oc3ccc(NC(=O)c4cccn(-c5ccc(F)cc5)c4=O)cc3F)c(-c3ccoc3)cnc2[nH]1
inhibition [1]: inactive | inhibition [2]: inactive | inhibition [3]: inactive

CCOc1ccn(-c2ccc(F)cc2)c(=O)c1C(=O)Nc1ccc(Oc2ccnc(N)c2Cl)c(F)c1
Activity (RT-112): Active | Activity (Homo sapiens): Active

CCc1nc2c(Oc3ccc(NC(=O)c4cccn(-c5ccc(F)cc5)c4=O)cc3F)c(-c3ccc(N(C)C)cc3)cnc2[nH]1
inhibition [1]: inactive | inhibition [2]: inactive | inhibition [3]: inactive

CCc1nc2c(Oc3ccc(NC(=O)c4cccn(-c5ccc(F)cc5)c4=O)cc3F)c(-c3ccncc3)cnc2[nH]1
inhibition [1]: inactive | inhibition [2]: inactive | inhibition [3]: inactive

CC(C)c1nc2c(Oc3ccc(NC(=O)c4cccn(-c5ccc(F)cc5)c4=O)cc3F)c(-c3ccoc3)cnc2[nH]1
inhibition [1]: inactive | inhibition [2]: inactive | inhibition [3]: inactive

COc1cc2/c(=N/c3ccc(Br)cc3F)nc[nH]c2cc1OCC1CCN(C)CC1 [VANDETANIB]
pIC50 (RT-112; RT-112, 72 h): 5.30 to 5.60 | pIC50 (A549): 5.30 to 5.60 | pIC50 [4]: 5.30 to 5.60
